Reference: ChEMBL document CHEMBL4382294, “Synthesis of a 6-Aza-Isoindolinone-Based Inhibitor of Phosphoinositide 3-Kinase γ via Ruthenium-Catalyzed [2 + 2 + 2] Cyclotrimerization” (ACS Med Chem Lett, 2019)

Legend:
Homo sapiens [1] = species on record: Homo sapiens; assay: Selectivity ratio of IC50 for PI3Kbeta (unknown origin) to IC50 for PI3Kgamma (unknown origin)
[2] = molecular target: T1, Phosphatidylinositol 4,5-bisphosphate 3-kinase catalytic subunit gamma isoform (Homo sapiens, UniProt P48736); assay: Inhibition of PI3Kgamma in human THP1 cells assessed as reduction in MCP1-induced Akt phosphorylation at Thr308/Ser473 residue preincubated for 1 hr followed by MCP1 stimulation for 3 mins by FACS analysis; format: cell-based
Homo sapiens [3] = species on record: Homo sapiens; assay: Selectivity ratio of IC50 for PI3Kalpha (unknown origin) to IC50 for PI3Kgamma (unknown origin)
Homo sapiens [4] = species on record: Homo sapiens; assay: Selectivity ratio of IC50 for PI3Kdelta (unknown origin) to IC50 for PI3Kgamma (unknown origin)
[5] = molecular target: T1, Phosphatidylinositol 4,5-bisphosphate 3-kinase catalytic subunit gamma isoform; assay: Inhibition of PI3Kgamma (unknown origin) using PIP2 as substrate measured after 15 mins in presence of [33P]ATP by scintillation counting method

T1 sequence (P48736 whole entry, canonical isoform): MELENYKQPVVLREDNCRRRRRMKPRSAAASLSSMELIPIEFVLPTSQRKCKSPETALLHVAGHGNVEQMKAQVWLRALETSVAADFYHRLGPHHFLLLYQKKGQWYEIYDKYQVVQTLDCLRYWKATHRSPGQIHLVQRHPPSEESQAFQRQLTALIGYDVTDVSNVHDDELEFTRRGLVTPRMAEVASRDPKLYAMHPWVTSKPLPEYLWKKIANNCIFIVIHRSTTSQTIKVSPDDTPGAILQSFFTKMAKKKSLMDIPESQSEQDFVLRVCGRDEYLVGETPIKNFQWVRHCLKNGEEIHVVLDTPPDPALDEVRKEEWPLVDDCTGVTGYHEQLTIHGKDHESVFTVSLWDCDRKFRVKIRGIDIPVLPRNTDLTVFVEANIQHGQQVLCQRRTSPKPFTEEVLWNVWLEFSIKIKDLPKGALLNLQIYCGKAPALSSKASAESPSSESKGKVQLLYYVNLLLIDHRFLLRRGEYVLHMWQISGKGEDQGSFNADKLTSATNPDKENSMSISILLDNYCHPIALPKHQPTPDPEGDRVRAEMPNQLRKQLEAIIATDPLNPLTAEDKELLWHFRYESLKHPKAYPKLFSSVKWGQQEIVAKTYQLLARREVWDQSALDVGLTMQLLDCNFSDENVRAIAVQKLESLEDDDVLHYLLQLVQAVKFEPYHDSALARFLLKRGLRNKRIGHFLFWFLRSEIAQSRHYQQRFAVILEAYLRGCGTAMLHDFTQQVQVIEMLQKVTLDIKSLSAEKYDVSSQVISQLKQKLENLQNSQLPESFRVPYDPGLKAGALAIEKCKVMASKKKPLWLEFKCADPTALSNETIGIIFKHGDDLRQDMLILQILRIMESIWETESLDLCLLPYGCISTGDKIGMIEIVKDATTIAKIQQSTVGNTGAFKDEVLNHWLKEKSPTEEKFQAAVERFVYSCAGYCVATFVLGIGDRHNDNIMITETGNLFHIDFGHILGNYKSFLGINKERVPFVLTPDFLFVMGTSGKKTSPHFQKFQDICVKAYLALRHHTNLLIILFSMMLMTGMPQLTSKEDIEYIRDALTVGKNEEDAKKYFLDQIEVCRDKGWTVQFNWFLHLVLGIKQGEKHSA

Compound: COc1cc(-c2ccc3c(n2)CN(c2cnn(CC(F)(F)F)c2)C3=O)cnc1OC
- Ratio IC50 (Homo sapiens [1]): 31
- IC50 [2]: 47 nM
- Ratio IC50 (Homo sapiens [3]): 65
- Ratio IC50 (Homo sapiens [4]): 13

Compound: COc1cc(-c2cc3c(c(C)n2)C(=O)N(c2cnn(CC(F)(F)F)c2)C3)cnc1OC
- Ratio IC50 (Homo sapiens [1]): 8
- IC50 [2]: 270 nM
- Ki [5]: 14 nM
- Ratio IC50 (Homo sapiens [3]): 15
- Ratio IC50 (Homo sapiens [4]): 6
